One experiment concerns HIV-1 RF strain. Nature of the experiment: susceptibility of HIV-1 strains to an attachment inhibitor (IC50, inhibition of virus replication). It is filed as cell-based. As to conditions: Human immunodeficiency virus 1; HIV-1 laboratory strain RF. The text has this:
(§1) As used herein, “ICn” refers to Inhibitory Concentration. It is the concentration of drug in the patient's blood or in vitro needed to suppress the reproduction of a disease-causing virus (such as HIV) by n %. Thus, “IC50” refers to the concentration of an anti-viral agent at which virus replication is inhibited by 50% of the level observed in the absence of the drug.
(§2) Two laboratory strains of HIV-1 were used in this assay.

The next experiment has as its system HIV-1 NL4-3. The experiment is described as above. It is filed as cell-based. As to conditions: Human immunodeficiency virus 1, NL43; HIV-1 laboratory strain NL4-3.
Description: as §1, §2

The test system of experiment [1] is HIV-1 NL4-3 binding to sCD4-Fc. Nature of the experiment: immunoassay: virus capture by sCD4-Fc on protein G beads, quantitated by p24 ELISA. As to conditions: attachment inhibitor 0.5 uM, 15 min room temperature, FIG. 2. As for the experimental part: (§3) Two laboratory strains of HIV-1 were used in this assay, NL4-3, which is susceptible to the attachment inhibitor, the other is RF, which is insensitive to the action of the attachment inhibitor. The amount of virus present with and without attachment inhibitor (AI) is quantitated by a p24 ELISA.
(§4) Virus stock was diluted to 1×10^4 TCID50 per ml in RPMI media with 10% fetal bovine serum (FBS). The attachment inhibitor (or DMSO) was added to a final concentration of 0.5 uM and the mixture incubated for 15 min at room temperature. Eighty microliters of sCD4-Fc (a recombinant protein containing the gp120 binding domain of CD4 connected to an immunoglobulin […]) at 5Oug/ml was added and incubated for an additional 30 min, with gentle rocking. Twenty microliters of protein G SEPHAROSE® beads (binding capacity of 200 ug IgG) was added and rocked at 4° C. for an additional 60 min. Unbound virus was removed by washing the beads 4 times with excess PBS. Virus captured on the beads was lysed with 0.5% Triton X-100 and the beads removed by centrifugation. The amount of virus present in the supernatant is quantitated by a p24 ELISA, according to the manufacturer's instructions (PerkinElmer NEK-050).
In general terms: ELISA stands for enzyme-linked immunosorbent assay.

Experiment [2] deals with HIV-1 RF strain binding to sCD4-Fc. The experiment is described as above. As to conditions: attachment inhibitor 0.5 uM, 15 min room temperature, FIG. 2. As for the experimental part:
as §3, §4

Bounds are passed on as bounds.

As usually defined, the IC50 is the midpoint of a concentration-inhibition curve. Consider `COc1cnc(-n2cnc(C)n2)c2[nH]cc(C(=O)C(=O)N3CCN(C(=O)c4ccccc4)CC3)c12` [attachment inhibitor, 1-(4-benzoyl-piperazin-1-yl)-2-[4-methoxy-7-(3-methyl-[1,2,4]triazol-1-yl)-1H-pyrralo[2,3-c]pyridine-3-yl]-ethane-1,2-dione], for which the results for the concentration for half-maximal inhibition (IC50) in the experiment on HIV-1 RF strain and with HIV-1 NL4-3 were over 2000 nM and 2.2 ± 0.6 nM, respectively. For the same compound, the “amount of virus captured by sCD4-Fc (p24 ELISA) with attachment inhibitor versus DMSO” value is on record as “much less than when DMSO is used” in experiment [1] and “no significant difference” in experiment [2].

For the origin of these results see patent publication US20140356863A1, “METHODS FOR DETERMINING THE SUSCEPTIBILITY OF A VIRUS TO AN ATTACHMENT INHIBITOR” (BRISTOL-MYERS SQUIBB COMPANY, priority 2011, published 2014).
